Laboratory results from ChEMBL document CHEMBL1154350 (Bioorg Med Chem Lett, 2009).
Activity calls are given as the source filed them. The rule behind the calls is not given here.

Legend:
[1] = target: T1, Succinyl-diaminopimelate desuccinylase (Haemophilus influenzae (strain ATCC 51907 / DSM 11121 / KW20 / Rd), UniProt P44514); assay: Inhibition of Haemophilus influenzae recombinant DapE
T1 sequence (P44514 whole entry): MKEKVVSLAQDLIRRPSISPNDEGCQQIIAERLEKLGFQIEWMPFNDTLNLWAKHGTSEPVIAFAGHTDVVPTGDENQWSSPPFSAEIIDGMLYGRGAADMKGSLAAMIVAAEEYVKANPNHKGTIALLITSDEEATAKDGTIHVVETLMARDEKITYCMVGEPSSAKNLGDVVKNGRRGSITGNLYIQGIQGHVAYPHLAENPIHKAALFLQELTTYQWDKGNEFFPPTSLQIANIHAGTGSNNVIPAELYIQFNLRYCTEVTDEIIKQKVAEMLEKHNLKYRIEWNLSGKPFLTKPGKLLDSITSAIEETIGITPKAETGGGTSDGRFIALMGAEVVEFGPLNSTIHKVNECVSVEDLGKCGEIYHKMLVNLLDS

[2] = target: T1, Succinyl-diaminopimelate desuccinylase; assay: Inhibition of Haemophilus influenzae recombinant DapE by competitive binding assay
[3] = target: T1, Succinyl-diaminopimelate desuccinylase; assay: Inhibition of Haemophilus influenzae recombinant DapE by non-competitive binding assay
[4] = test system: Escherichia coli; assay: Antibacterial activity against Escherichia coli at 5 mg by antibiotic plate assay; type: functional, organism-based
[5] = test system: Escherichia coli; assay: Antibacterial activity against Escherichia coli at 20 mg by antibiotic plate assay; type: functional, organism-based
[6] = test system: Escherichia coli; assay: Antibacterial activity against Escherichia coli at 1 mg by antibiotic plate assay; type: functional, organism-based

SMILES | IC50 [1] [µM] | also measured
O=C(O)CCP(=O)(O)O | 1620 | Ki [1]: 800 µM
NC(=S)Nc1ccccc1 [PHENYLTHIOUREA] | > 100 | 
CCOC(=O)[C@H](CCc1ccccc1)N[C@@H](C)C(=O)N1CCC[C@H]1C(=O)O | > 1000 | 
CCCCB(O)O [BUTYL BORONIC ACID] | ~10000 | 
O=C(NO)OCc1ccccc1 | > 1000 | 
OB(O)c1cccs1 | 92 | Ki [3]: 67 µM
O=C(O)c1cccc(S)c1 | 34 | 
C[C@H](CS)C(=O)N1CCC[C@H]1C(=O)O |  | Activity [4]: Active; Activity [5]: Active; Activity [6]: Active

Second part, led by results:

IC50 [1] [µM] | SMILES | also measured
43 | O=C(O)CCCS | 
50 | CC(C)(S)[C@@H](N)C(=O)O [PENICILLAMINE] | 
> 1000 | CC(=O)NO [ACETOHYDROXAMIC ACID] | 
> 10000 | O=C(O)c1ccc(B(O)O)cc1 | 
> 10000 | O=C(O)c1cccc(B(O)O)c1 | 
13.7 | CC(C)(S)[C@H](N)C(=O)O | Ki [2]: 4.6 µM
